This is an account of results in patent US9616062B2, “Cyclin dependent kinase inhibitors and methods of use” (priority 2009, dated 2017).

In experiment [1] the test system is renal cell proliferation in female FVB wt mice. Description: EdU incorporation into whole kidney of cisplatin-treated mice (flow cytometry). In kind it is in vivo, mouse. On the procedure:
FIG. 6: CDK4/6 inhibition blocks EdU incorporation into whole kidney in mice treated with cisplatin. […] EdU ([…]) was given IP every 24 hours prior to sacrifice. Kidneys were collected and single cell isolates were prepared and stained for EdU incorporation. Proliferation was assessed by flow cytometry. Data represents % of EdU staining in untreated, cisplatin-treated and cisplatin/PD0332991 treated cells.
[…] Proliferation was assessed by using BrdU (1 mg IP injection) every 6 hours for 24 hours prior to sacrifice or […] (0.1 mg IP) every 24 hours for 3 days prior to sacrifice.
Kidneys were harvested from mice and single cells were isolated using a gentleMACS™ tissue dissociator (Miltinyi Biotec, Bergisch Gladbach, Germany). Briefly, kidneys were cut into small pieces and placed in 10 ml collagenase (1 mg/ml) in a gentleMACS™ C tube (Miltinyi Biotec, Bergisch Gladbach, Germany). Tissue was dissociated following the manufacturer's recommendations (Miltinyi Biotec, Bergisch Gladbach, Germany). Cells were then incubated for 5 minutes in ACK buffer to lyse red blood cells, filtered and pelleted. Cells were resuspended in 4% paraformaldehyde and stored overnight at 4° C. For quantification of EdU incorporation, the cells were fixed, permeabilized, and stained with an APC EdU Flow Kit according to the manufacturer's instruction (Invitrogen Corporation, Carlsbad, Calif., United States of America). Flow cytometric analysis was performed using a CyAn ADP (Dako, Glostrup, Denmark). For each sample, a minimum of 500,000 cells was analyzed and the data were analyzed using FlowJo software (Tree Star, Inc., Ashland, Oreg., United States of America).
The kidney is relatively quiescent until challenged by a renal insult. Therefore, to determine whether renal cell proliferation was dependent on CDK4/6 activity in vivo, renal cell proliferation was stimulated by treating female FVB wt mice with cisplatin, a known nephrotoxic chemotherapeutic agent. At time 0 hr, mice were started on chow delivering PD0332991 100 mg/kg per day or standard chow with no drug. […]
(In general: A flow cytometer gives signals particle by particle.)

In experiment [2] the test system is C3-TAg mice (RB-deficient breast cancer). Description: C3-Tag transgenic mouse model of basal-like breast cancer, tumor volume. In kind it is in vivo. As to conditions: daily administration, 100 mg/kg daily in standard chow. How it is done:
FIG. 9: CDK4/6 inhibition potentiates the efficacy of chemotherapy in mouse model of RB-deficient breast cancer. […] Data are % change in tumor volume and represents the mean of at least 15 animals per cohort +/−SEM
FIG. 10: CDK4/6 inhibition potentiates the efficacy of chemotherapy in mouse model of RB-deficient breast cancer. Mice were treated every 7 days for three weeks with carboplatin (90 mg/kg IP) alone (darkly shaded squares) or in combination with PD0332991 (150 mg/kg PO; lightly shaded squares). Data are % change in tumor volume and represents the mean of at least 15 animals per cohort +/−SEM.
The C3-TAg mice are a model of basal-like breast cancer. […] The MMTV-c-neu model expresses c-neu (the mouse ortholog of human HER2) driven by the mouse mammary tumor virus (MMTV) promoter and is a model of HER2+ breast cancer. When tumors were noted to be ˜0.2 cm^2 in size, animals were treated as described and tumor response assessed by daily caliper measurements.
The effects of CDK4/6 inhibition in the C3-Tag transgenic mouse model of basal-like breast cancer were also evaluated. […] Tumor volume was measured by caliper weekly. Tumor volume was calculated using the following formula: Volume=[(width)^2×length]/2. […] Treatments were administered on days 0, 7 and 14 and tumor volumes were measured weekly, until the mice died or were euthanized due to toxicity or tumor burden.

In the case of `CC(=O)c1c(C)c2cnc(Nc3ccc(N4CCNCC4)cn3)nc2n(C2CCCC2)c1=O` [PD0332991, 6-acetyl-8-cyclopentyl-5-methyl-2-(5-piperazin-1-yl-pyridin-2-ylamino)-8H-pyrido-[2,3-d]-pyrimidin-7-one], in experiment [1] (cisplatin and PD0332991 vs cisplatin and vehicle control), the “reduction in cell proliferation” value is 88%. In addition, the “cells labeled with EdU” value in experiment [1] (kidney single cell suspension, 72 h, cisplatin 15 mg/kg IP, PD0332991 100 mg/kg per day in chow or no drug) is “approximately 2%”. In addition, the “tumor growth at day 21” value in experiment [2] is reported as “no effect on tumor growth”.
